The numbers were not newly measured in paper PMC3433420 (PLoS ONE, 2012), which cites them from elsewhere.

The target of this data set is SH2 and PTB domains. The conditions noted are these: cited from earlier work. The source says:
Supplement pone.0044471.s022.xlsx, sheet "Most recent PM interactions" | column: Kd || Supplement pone.0044471.s022.xlsx, sheet "All original PM interactions" | column: Kd

Setting [1] is: protein ABL2, ref Jones et al. 2006 / Kaushansky et al. Mol Biosys 2008 / Kaushansky et al. Chem and Biol 2008.
[2] abbreviates: protein BLK, ref Jones et al. 2006 / Kaushansky et al. Mol Biosys 2008 / Kaushansky et al. Chem and Biol 2008.
The mark [3] stands for this setting: protein GRB10, ref Jones et al. 2006 / Kaushansky et al. Mol Biosys 2008 / Kaushansky et al. Chem and Biol 2008.
Setting [4] is: protein ITK, ref Jones et al. 2006 / Kaushansky et al. Mol Biosys 2008 / Kaushansky et al. Chem and Biol 2008.
[5] abbreviates: protein PIK3R1-NC, ref Jones et al. 2006 / Kaushansky et al. Mol Biosys 2008 / Kaushansky et al. Chem and Biol 2008.
Where [6] appears, read: protein PIK3R3-NC, ref Jones et al. 2006 / Kaushansky et al. Mol Biosys 2008 / Kaushansky et al. Chem and Biol 2008.
The mark [7] stands for this setting: protein RASA1-N, ref Jones et al. 2006 / Kaushansky et al. Mol Biosys 2008 / Kaushansky et al. Chem and Biol 2008.
The mark [8] stands for this setting: protein RASA1-NC, ref Jones et al. 2006 / Kaushansky et al. Mol Biosys 2008 / Kaushansky et al. Chem and Biol 2008.
[9] abbreviates: protein SH2B3, ref Jones et al. 2006 / Kaushansky et al. Mol Biosys 2008 / Kaushansky et al. Chem and Biol 2008.
Setting [10] is: protein SH2B, ref Jones et al. 2006 / Kaushansky et al. Mol Biosys 2008 / Kaushansky et al. Chem and Biol 2008.
The mark [11] stands for this setting: protein SH2D3C, ref Jones et al. 2006 / Kaushansky et al. Mol Biosys 2008 / Kaushansky et al. Chem and Biol 2008.
Where [12] appears, read: protein SHC1-PTB, ref Jones et al. 2006 / Kaushansky et al. Mol Biosys 2008 / Kaushansky et al. Chem and Biol 2008.
Where [13] appears, read: protein SHC2-PTB, ref Jones et al. 2006 / Kaushansky et al. Mol Biosys 2008 / Kaushansky et al. Chem and Biol 2008.
Setting [14] is: protein SLA, ref Jones et al. 2006 / Kaushansky et al. Mol Biosys 2008 / Kaushansky et al. Chem and Biol 2008.
The mark [15] stands for this setting: protein SRC, ref Jones et al. 2006 / Kaushansky et al. Mol Biosys 2008 / Kaushansky et al. Chem and Biol 2008.
The mark [16] stands for this setting: protein SYK-NC, ref Jones et al. 2006 / Kaushansky et al. Mol Biosys 2008 / Kaushansky et al. Chem and Biol 2008.
The mark [17] stands for this setting: protein TNS4, ref Jones et al. 2006 / Kaushansky et al. Mol Biosys 2008 / Kaushansky et al. Chem and Biol 2008.
Where [18] appears, read: protein YES1, ref Jones et al. 2006 / Kaushansky et al. Mol Biosys 2008 / Kaushansky et al. Chem and Biol 2008.
[19] abbreviates: protein ABL2, ref Jones et al. 2006 / Kaushansky et al. Chem and Biol 2008.
Setting [20] is: protein SHC1-PTB, ref Jones et al. 2006 / Kaushansky et al. Chem and Biol 2008.

Like-named read-outs stand apart in the source and are kept apart here.

For the substance “DNPDpYQQDFFPKd [ErbB1 pY1172, N-terminally rhodamine-labeled 13-mer phosphopeptide]”, the equilibrium dissociation constant (Kd) – broadly, a measure of binding affinity in units of concentration – reads like this: under setting [1], 490 nM; (protein BCAR3, ref Jones et al. 2006 / Kaushansky et al. Mol Biosys 2008 / Kaushansky et al. Chem and Biol 2008) 300 nM; under setting [2], 750 nM; (protein CRK, ref Jones et al. 2006 / Kaushansky et al. Mol Biosys 2008 / Kaushansky et al. Chem and Biol 2008) 410 nM; (protein FGR, ref Jones et al. 2006 / Kaushansky et al. Mol Biosys 2008 / Kaushansky et al. Chem and Biol 2008) 550 nM; under setting [3], 1290 nM. The Kd (protein GRB14, ref Jones et al. 2006 / Kaushansky et al. Mol Biosys 2008 / Kaushansky et al. Chem and Biol 2008) was 1250 nM; the equilibrium dissociation constant (Kd) under setting [4] is 1410 nM; the Kd (protein LYN, ref Jones et al. 2006 / Kaushansky et al. Mol Biosys 2008 / Kaushansky et al. Chem and Biol 2008) is 1590 nM; the Kd (protein NCK2, ref Jones et al. 2006 / Kaushansky et al. Mol Biosys 2008 / Kaushansky et al. Chem and Biol 2008) was 380 nM; the Kd (protein PIK3R1-N, ref Jones et al. 2006 / Kaushansky et al. Mol Biosys 2008 / Kaushansky et al. Chem and Biol 2008) is 400 nM; the Kd under setting [5] is 550 nM. Moreover, the Kd reads like this: (protein PIK3R2-N, ref Jones et al. 2006 / Kaushansky et al. Mol Biosys 2008 / Kaushansky et al. Chem and Biol 2008) 390 nM; (protein PIK3R2-NC, ref Jones et al. 2006 / Kaushansky et al. Mol Biosys 2008 / Kaushansky et al. Chem and Biol 2008) 320 nM; under setting [6], 850 nM; (protein PLCG2-N, ref Jones et al. 2006 / Kaushansky et al. Mol Biosys 2008 / Kaushansky et al. Chem and Biol 2008) 840 nM; (protein PLCG2-NC, ref Jones et al. 2006 / Kaushansky et al. Mol Biosys 2008 / Kaushansky et al. Chem and Biol 2008) 670 nM; under setting [7], 1140 nM. Further, the Kd reads like this: under setting [8], 1170 nM; under setting [9], 1600 nM; under setting [10], 1820 nM; under setting [11], 1910 nM; (protein SHB, ref Jones et al. 2006 / Kaushansky et al. Mol Biosys 2008 / Kaushansky et al. Chem and Biol 2008) 1790 nM; under setting [12], 40 nM. Further, the Kd is, setting by setting: under setting [13], 1310 nM; under setting [14], 2000 nM; under setting [15], 470 nM; (protein SUPT6H, ref Jones et al. 2006 / Kaushansky et al. Mol Biosys 2008 / Kaushansky et al. Chem and Biol 2008) 1030 nM; (protein SYK-C, ref Jones et al. 2006 / Kaushansky et al. Mol Biosys 2008 / Kaushansky et al. Chem and Biol 2008) 870 nM; under setting [16], 1280 nM. For the same substance, the Kd is 740 nM (protein TNS3, ref Jones et al. 2006 / Kaushansky et al. Mol Biosys 2008 / Kaushansky et al. Chem and Biol 2008); 330 nM under setting [17]; 220 nM (protein VAV2, ref Jones et al. 2006 / Kaushansky et al. Mol Biosys 2008 / Kaushansky et al. Chem and Biol 2008); 2000 nM (protein VAV3, ref Jones et al. 2006 / Kaushansky et al. Mol Biosys 2008 / Kaushansky et al. Chem and Biol 2008); 100 nM under setting [18].
“DNPDpYWHSRLFPd [ErbB3 pY1328, N-terminally rhodamine-labeled 13-mer phosphopeptide]”: the Kd under setting [19] was 600 nM; the Kd (protein HSH2D, ref Jones et al. 2006 / Kaushansky et al. Chem and Biol 2008) is 1700 nM; the dissociation constant Kd (protein MATK, ref Jones et al. 2006 / Kaushansky et al. Chem and Biol 2008) is 1870 nM; the Kd (protein NCK2, ref Jones et al. 2006 / Kaushansky et al. Chem and Biol 2008) is 1900 nM; the Kd (protein RASA1-NC, ref Jones et al. 2006 / Kaushansky et al. Chem and Biol 2008) was 1920 nM; the Kd under setting [20] was 220 nM. Further, the Kd by setting is: (protein SYK-NC, ref Jones et al. 2006 / Kaushansky et al. Chem and Biol 2008) 1980 nM; (protein TENC1, ref Jones et al. 2006 / Kaushansky et al. Chem and Biol 2008) 1250 nM; (protein TNS4, ref Jones et al. 2006 / Kaushansky et al. Chem and Biol 2008) 850 nM.
On to “DNPDpYWNHSLPPd [ErbB4 pY1242, N-terminally rhodamine-labeled 13-mer phosphopeptide]”, for which the Kd by setting is: (protein ABL2, ref Kaushansky et al. Chem and Biol 2008) 34 nM; (protein SHC1-PTB, ref Kaushansky et al. Chem and Biol 2008) 510 nM.
Regarding “DNPEpYHNASNGPd [ErbB4 pY1188, N-terminally rhodamine-labeled 13-mer phosphopeptide]”, the Kd (protein ABL1, all original PM interactions, ref Jones et al. 2006 / Kaushansky et al. Chem and Biol 2008) was 1820 nM; the Kd (protein ABL2, all original PM interactions, ref Jones et al. 2006 / Kaushansky et al. Chem and Biol 2008) is 760 nM; the Kd under setting [19] was 35 nM; the Kd (protein NCK2, all original PM interactions, ref Jones et al. 2006 / Kaushansky et al. Chem and Biol 2008) was 2000 nM; the Kd (protein PIK3R3-NC, all original PM interactions, ref Jones et al. 2006 / Kaushansky et al. Chem and Biol 2008) was 2000 nM; the Kd (protein SHC1-PTB, all original PM interactions, ref Jones et al. 2006 / Kaushansky et al. Chem and Biol 2008) was 280 nM. Further, the Kd under setting [20] is 720 nM.
On to “DSNFpYRALMDEEd [ErbB1 pY998, N-terminally rhodamine-labeled 13-mer phosphopeptide]”, for which the Kd under setting [1] was 2000 nM; the Kd under setting [2] was 190 nM; the Kd (protein FES, ref Jones et al. 2006 / Kaushansky et al. Mol Biosys 2008 / Kaushansky et al. Chem and Biol 2008) is 1230 nM; the equilibrium dissociation constant (Kd) under setting [3] was 2000 nM; the Kd under setting [4] is 280 nM; the Kd (protein LCK, ref Jones et al. 2006 / Kaushansky et al. Mol Biosys 2008 / Kaushansky et al. Chem and Biol 2008) is 2000 nM. Also, the Kd reads like this: under setting [5], 240 nM; under setting [6], 970 nM; (protein PTPN6-NC, ref Jones et al. 2006 / Kaushansky et al. Mol Biosys 2008 / Kaushansky et al. Chem and Biol 2008) 2000 nM; under setting [7], 1060 nM; under setting [8], 1380 nM; under setting [9], 1360 nM. In addition, the Kd runs as follows: under setting [10], 2000 nM; (protein SH2D2A, ref Jones et al. 2006 / Kaushansky et al. Mol Biosys 2008 / Kaushansky et al. Chem and Biol 2008) 2000 nM; under setting [11], 2000 nM; under setting [12], 1150 nM; under setting [13], 980 nM; under setting [14], 1600 nM. The Kd (protein SOCS1, ref Jones et al. 2006 / Kaushansky et al. Mol Biosys 2008 / Kaushansky et al. Chem and Biol 2008) is 2000 nM; the Kd (protein SOCS2, ref Jones et al. 2006 / Kaushansky et al. Mol Biosys 2008 / Kaushansky et al. Chem and Biol 2008) was 2000 nM; the Kd under setting [15] was 1140 nM; the dissociation constant Kd under setting [16] was 910 nM; the Kd under setting [17] is 2000 nM; the Kd under setting [18] was 720 nM. The Kd (protein ZAP70-NC, ref Jones et al. 2006 / Kaushansky et al. Mol Biosys 2008 / Kaushansky et al. Chem and Biol 2008) was 1650 nM.
